This is an account of results in patent US20250042961A1, “P53 PEPTIDOMIMETIC MACROCYCLES” (MERCK SHARP & DOHME LLC, priority 2021, published 2025).

Each structure is given as a SMILES string. Like-named read-outs stand apart in the source and are kept apart here. *1 amine or outer side, *2 acyl side, *3 side chain or, on linkers, in order; H or OH if unused. Where a SMILES comes first, the peptide text is derived from it. Bridges are numbered along the chain shown (N, C = ends). [ ]: non-standard residue; d: D form. ξ: configuration not given here. ξαMeNle(6-ylidene) = CC(CCCC=[*:3])(N[*:1])C(=O)[*:2]; dPhe(4-CF3) = N[C@H](Cc1ccc(C(F)(F)F)cc1)C(=O)O; dTrp(6-F) = N[C@H](Cc1c[nH]c2cc(F)ccc12)C(=O)O

For data set [1], the system named is Jump-In T-REx CHO-K1 BLA cells. Briefly: Tetracycline beta-lactamase reporter gene cellular assay (counterscreen). It counts as cell-based. As to the method: This assay was based on Jump-In™ T-REx™ CHO-K1 BLA cells containing a stably integrated β-lactamase under the control of an inducible cytomegalovirus (CMV) promoter. Cells were maintained in Dulbecco's Minimal Eagle Medium (DMEM) with 10% fetal bovine serum (FBS), Blasticidin, and Penicillin/Streptomycin and then transferred to 1.5 mL freezing vials and stored under liquid nitrogen in growth media containing 5% DMSO. […] Cells were seeded into a 384-well plate at a density of 4000 cells per well. […] The final working concentration of DMSO was 0.5%. β-lactamase activity was detected using the ToxBLAzer Dual Screen (Invitrogen), as per the manufacturer's instructions. Measurements were carried out using the Envision multiplate reader (PerkinElmer). Counterscreen activity was defined as the amount of β-lactamase activity induced by tetracycline. Measurements were taken a minimum of three times (biological replicates) and values are reported as geometric means of the replicates.

The subject of a further data set is HCT116. The data set is classed as cell-based. An excerpt:
(§1) To further establish the impact of the above modification in making cleaner “drug” like compounds, we profiled a set of compounds of the invention in cellular proliferation assays (Table 3).

A further data set deals with p53 null Ca Ski. The data set is classed as cell-based. The settings on record: 72 h.
Description: as §1

In data set [2] the test system is p53 responsive β-lactamase reporter in HCT116 cells. Briefly: p53 beta-lactamase reporter gene cellular functional assay. The data set is classed as cell-based. How it is done: HCT116 cells were stably transfected with a p53 responsive β-lactamase reporter and expanded in McCoy's 5A Medium with 10% fetal bovine serum (FBS), Blasticidin, and Penicillin/Streptomycin and then transferred to 1.5 mL freezing vials and stored under liquid nitrogen in growth media containing 5% DMSO. […] The cells were then seeded into a 384-well plate at a density of 8000 cells per well. […] The final working concentration of DMSO was 0.5%. β-lactamase activity was detected using the ToxBLAzer Dual Screen (Invitrogen), as per the manufacturer's instructions. Measurements were made using the Envision multiplate reader (PerkinElmer). […] Measurements were taken a minimum of three times (biological replicates) and values are reported as geometric means of the replicates.
In general terms: Reporter assays use an easily measured gene product as a stand-in for the process of interest.

Another data set addresses T1, MDM2 (1-125) (Homo sapiens, UniProt Q00987).
T1 construct: GST (N); His6 (N); TEV cleavage site ENLYFQG (N); made in house; host or cells: Escherichia coli BL21 (DE3) Rosetta T1R
The data set can be described thus: Competitive fluorescence anisotropy assay (FP Kd MDM2). It counts as binding. An excerpt:
For use in the peptide binding assay, a human MDM2 1-125 sequence was cloned into a pNIC-GST vector. The TEV (tobacco etch virus) cleavage site was changed from ENLYFQS (SEQ ID NO: 13) to ENLYFQG (SEQ ID NO: 14) to give a fusion protein with the following sequence:
[P] is the protein concentration (MDM2), [L] is the labeled peptide concentration, r is the anisotropy measured, r0 is the anisotropy of the free peptide, rb is the anisotropy of the MDM2-FAM-labeled peptide complex, Kd is the dissociation constant, [L]t is the total FAM labeled peptide concentration, and [P]t is the total MDM2 concentration. […] These values were then used to determine apparent Kd values of the respective competing ligands in subsequent competition assays in fluorescence anisotropy experiments. MDM2 and MDM4 competition experiments were performed with their respective concentrations held constant at 250 nM and 75 nM, in the presence of 50 nM of FAM-labeled 12/1. The competing molecules were then titrated against the complex of the FAM-labeled peptide and protein. Apparent Kd values were determined by fitting the experimental data to the equations shown below:
[L]st and [L]t denote labeled ligand and total unlabeled ligand input concentrations, respectively. Kd2 is the dissociation constant of the interaction between the unlabeled ligand and the protein.
In all competition experiments, it is assumed that [P]t>[L]st, otherwise considerable amounts of free labeled ligand would always be present and would interfere with measurements. Kd1 is the apparent Kd for the labeled peptide used and has been experimentally determined as described in the previous paragraph. The FAM-labeled peptide was dissolved in dimethyl sulfoxide (DMSO) at 1 mM and diluted into experimental buffer. Readings were carried out with an Envision Multilabel Reader (PerkinElmer). Experiments were carried out in PBS (2.7 mM KCl, 137 mM NaCl, 10 mM Na2HPO4 and 2 mM KH2PO4 (pH 7.4)) and 0.1% Tween-20 buffer. All titrations were carried out in triplicate. Curve-fitting was carried out using Prism 4.0 (GraphPad®). […] Negative control titrations of the ligands under investigation were also carried out with the fluorescently labeled peptide (in the absence of MDM2) to ensure no interactions were occurring between the ligands and the FAM-labeled peptide. […] Measurements were taken a minimum of three times (biological replicates) and values are reported as geometric means of the replicates.
Background: Fluorescence polarisation rises when a labelled molecule tumbles more slowly, as on binding a larger partner.

The test system of another data set is HCT116 cells. It counts as cell-based. The settings on record: serum condition not stated; read-out: LDH-release EC50. How it is done:
HCT116 cells were stably transfected with a p53 responsive β-lactamase reporter and expanded in McCoy's 5A Medium with 10% fetal bovine serum (FBS), Blasticidin, and Penicillin/Streptomycin and then transferred to 1.5 mL freezing vials and stored under liquid nitrogen in growth media containing 5% DMSO. One day prior the assay, a vial of banked cells was recovered in a cell culture flask and incubated for 24 hours, followed by removal of cell growth media and replacement with Opti-MEM containing 2% FBS. The cells were then seeded into a 384-well plate at a density of 8000 cells per well. […] The final working concentration of DMSO was 0.5%. Lactate dehydrogenase release was detected using the CytoTox-ONE Homogenous Membrane Integrity Assay Kit (Promega), as per the manufacturer's instructions. Measurements were carried out using the Tecan plate reader. Maximum LDH release was defined as the amount of LDH released as induced by the lytic peptide (iDNA79) and used to normalize the results. Measurements were taken a minimum of three times (biological replicates) and values are reported as geometric means of the replicates.

Data set [3] can be described thus: Helicity stated in text (method not given). The data set is classed as physicochemical. Particulars: aqueous solution for compound 6.
Where [4] appears, read: read-out: Counter screen EC50 (0% FBS, 4 h), 0% FBS, 4 h.
Setting [5] is: read-out: Counter screen EC50 (10% FBS, 16 h), 10% FBS, 16 h.
Where [6] appears, read: read-out: p53 activity EC50 (0% FBS, 4 h), 0% FBS, 4 h.
Setting [7] is: read-out: p53 activity EC50 (10% FBS, 16 h), 10% FBS, 16 h.

T1 sequence (Q00987 with tags, fused parts or gaps): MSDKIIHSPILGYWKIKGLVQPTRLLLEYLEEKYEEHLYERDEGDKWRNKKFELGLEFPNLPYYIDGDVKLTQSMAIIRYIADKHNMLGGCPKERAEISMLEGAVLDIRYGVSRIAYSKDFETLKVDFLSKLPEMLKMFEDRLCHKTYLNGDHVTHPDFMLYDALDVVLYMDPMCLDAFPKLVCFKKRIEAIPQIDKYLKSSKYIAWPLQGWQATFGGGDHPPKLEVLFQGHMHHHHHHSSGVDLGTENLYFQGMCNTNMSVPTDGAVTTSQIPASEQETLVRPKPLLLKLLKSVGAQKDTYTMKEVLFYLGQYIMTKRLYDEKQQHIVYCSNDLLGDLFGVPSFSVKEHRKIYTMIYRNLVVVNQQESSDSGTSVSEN

The EC50 is the concentration needed to bring the measured effect to its halfway point. By Kd is commonly meant the free concentration of one partner at which half of the binding sites on the other are occupied at equilibrium, for simple one-to-one binding. For `CC(=O)N[C@@H](C(=O)N[C@H](C)C(=O)N[C@H](Cc1c[nH]c2cc(F)ccc12)C(=O)N[C@H](Cc1ccc(O)cc1)C(=O)N[C@H](C)C(=O)NC1(C)CCC/C=C\CCCC(C)(C(=O)N[C@H](CC(C)C)C(=O)N[C@H](CO)C(N)=O)NC(=O)[C@@H](CCC(N)=O)NC(=O)[C@@H](CCC(=O)O)NC(=O)[C@@H](Cc2ccc(C(F)(F)F)cc2)NC1=O)[C@H](C)O` (stereo partly drawn) [Compound 2, Acetyl-^DPMI-δ-(6-10 olefinstaple) (D-K9D-Q, D-R12D-S)-NH2] (Ac-[dT][dA][dTrp(6-F)][dY][dA][ξαMeNle(6-ylidene)][dPhe(4-CF3)][dE][dQ][ξαMeNle(6-ylidene)][dL][dS]-NH2; staple (Z) 6-10), the EC50 in [1] (setting [4]) is greater than 50 µM; in [1] (setting [5]), greater than 50 µM; in [1] (serum condition not stated, read-out: counterscreen EC50), greater than 50 µM; in the data set with HCT116 (72 h), 9.1 µM; in the data set with p53 null Ca Ski, 30.4 µM; in data set [2] (setting [6]) it was 3.6 µM. Further, the EC50 (in data set [2] (setting [7]); in the data set with HCT116 cells) was greater than 50 µM each time. For the same compound, the “HCT116 proliferation % Max” value with HCT116 (72 hours, 10% serum) is 80%. Also, the “improvement of p53 reporter gene functional cellular activity” value in data set [2] (0% serum, versus compound 1) stood at 3 fold. On MDM2 (1-125), this compound returned a Kd of 0.258 µM.
The solubility is the dissolved amount per volume that the medium holds. Higher therefore signals a readily soluble substance. The term chromatographic logD denotes lipophilicity estimated from chromatographic retention. Read a low chromatographic logD as a more hydrophilic compound. For `CC(=O)N[C@@H](C(=O)N[C@H](C)C(=O)N[C@H](Cc1c[nH]c2cc(F)ccc12)C(=O)N[C@H](Cc1ccc(O)cc1)C(=O)N[C@H](C)C(=O)NC1(C)CCC/C=C\CCCC(C)(C(=O)N[C@H](CC(C)C)C(=O)N[C@H](CO)C(=O)N[C@H](C)C(=O)N[C@H](Cc2ccccc2)C(=O)N[C@H](C)C(=O)N[C@H](C)C(=O)N[C@H](C)C(=O)N[C@H](C)C(N)=O)NC(=O)[C@@H](CCC(N)=O)NC(=O)[C@@H](CCC(=O)O)NC(=O)[C@@H](Cc2ccc(C(F)(F)F)cc2)NC1=O)[C@H](C)O.N` (stereo partly drawn) [Compound 6] (Ac-[dT][dA][dTrp(6-F)][dY][dA][ξαMeNle(6-ylidene)][dPhe(4-CF3)][dE][dQ][ξαMeNle(6-ylidene)][dL][dS][dA][dF][dA][dA][dA][dA]-NH2; staple (Z) 6-10), the EC50 in [1] (setting [4]) is greater than 50 µM; in data set [1] (setting [5]), greater than 50 µM; in data set [2] (setting [6]), 9.65 µM; in [2] (setting [7]), 1.75 µM. The solubility in “Solubility (PBS, pH 7)” amounted to 146 µM. Also, in data set [3], the helicity result is reported as “about 65%”. For the same compound, the chromatographic logD in “physchem” is 3.06. The compound further had a Kd at MDM2 (1-125) of 0.03 µM.
